This passage reports inhibition results from ChEMBL document CHEMBL3132769, “Fragment growing to retain or alter the selectivity of anchored kinase hinge-binding fragments” (Medchemcomm, 2014).

The target of assay [1] is T1, Serine/threonine-protein kinase D1 (Homo sapiens) (UniProt Q15139).
T1 sequence (whole entry): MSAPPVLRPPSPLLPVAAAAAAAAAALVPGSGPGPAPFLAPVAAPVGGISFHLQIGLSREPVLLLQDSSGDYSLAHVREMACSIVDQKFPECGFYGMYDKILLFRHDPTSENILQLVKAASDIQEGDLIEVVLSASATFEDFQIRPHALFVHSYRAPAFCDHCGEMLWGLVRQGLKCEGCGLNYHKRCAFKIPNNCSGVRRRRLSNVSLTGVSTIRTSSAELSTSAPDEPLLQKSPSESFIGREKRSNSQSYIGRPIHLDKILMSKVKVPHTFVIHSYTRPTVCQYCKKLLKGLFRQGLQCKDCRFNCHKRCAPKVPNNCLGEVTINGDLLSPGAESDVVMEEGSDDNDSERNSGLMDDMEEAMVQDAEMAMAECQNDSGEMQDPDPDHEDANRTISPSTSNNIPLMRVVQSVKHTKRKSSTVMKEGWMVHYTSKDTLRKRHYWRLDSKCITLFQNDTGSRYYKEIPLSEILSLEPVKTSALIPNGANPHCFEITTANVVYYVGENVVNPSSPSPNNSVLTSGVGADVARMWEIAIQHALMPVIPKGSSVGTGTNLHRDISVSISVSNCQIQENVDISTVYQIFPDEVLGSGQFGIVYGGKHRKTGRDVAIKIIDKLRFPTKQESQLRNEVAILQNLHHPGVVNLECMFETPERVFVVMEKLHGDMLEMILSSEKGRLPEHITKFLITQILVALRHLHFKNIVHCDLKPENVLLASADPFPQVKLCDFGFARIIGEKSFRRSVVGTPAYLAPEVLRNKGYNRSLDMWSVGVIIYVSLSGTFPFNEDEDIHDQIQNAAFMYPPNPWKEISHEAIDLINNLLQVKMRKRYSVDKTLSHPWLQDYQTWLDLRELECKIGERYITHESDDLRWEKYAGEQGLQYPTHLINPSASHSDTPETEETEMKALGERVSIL
Description: Inhibition of human full length PKD1 expressed in baculovirus assessed as substrate phosphorylation using fluorescence-labelled peptides as substrate at 8 uM after 90 mins by microfluidic peptide phosphorylation assay.

Assay [2] has as its target Cyclin-dependent kinase 2 (Homo sapiens) (UniProt P24941). Nature of the assay: Inhibition of human full length CDK2 expressed in baculovirus assessed as substrate phosphorylation using fluorescence-labelled peptides as substrate at 9 uM after 90 mins by microfluidic peptide phosphorylation assay.
The target of assay [3] is T2, Serine/threonine-protein kinase DCLK2 (Homo sapiens) (UniProt Q8N568).
T2 sequence (whole entry): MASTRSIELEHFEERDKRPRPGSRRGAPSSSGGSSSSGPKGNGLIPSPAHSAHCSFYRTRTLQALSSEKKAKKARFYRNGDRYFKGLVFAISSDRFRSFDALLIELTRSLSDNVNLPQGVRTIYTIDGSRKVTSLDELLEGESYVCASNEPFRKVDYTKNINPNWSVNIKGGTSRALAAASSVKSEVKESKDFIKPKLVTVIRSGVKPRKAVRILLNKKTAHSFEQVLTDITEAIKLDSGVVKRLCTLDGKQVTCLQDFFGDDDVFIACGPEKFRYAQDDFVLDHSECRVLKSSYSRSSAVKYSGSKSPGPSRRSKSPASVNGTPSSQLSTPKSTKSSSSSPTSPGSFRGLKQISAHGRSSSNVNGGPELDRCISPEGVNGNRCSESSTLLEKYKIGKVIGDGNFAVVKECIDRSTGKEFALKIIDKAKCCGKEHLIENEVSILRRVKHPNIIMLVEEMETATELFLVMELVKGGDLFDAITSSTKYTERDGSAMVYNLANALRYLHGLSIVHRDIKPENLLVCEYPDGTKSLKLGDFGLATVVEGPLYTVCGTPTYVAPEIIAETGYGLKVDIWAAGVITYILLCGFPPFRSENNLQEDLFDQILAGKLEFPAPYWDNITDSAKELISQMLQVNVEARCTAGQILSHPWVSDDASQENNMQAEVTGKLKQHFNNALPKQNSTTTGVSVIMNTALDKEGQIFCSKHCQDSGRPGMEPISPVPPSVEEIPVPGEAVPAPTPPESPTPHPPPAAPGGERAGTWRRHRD
Description: Inhibition of human full length DCAMKL2 expressed in baculovirus assessed as substrate phosphorylation using fluorescence-labelled peptides as substrate at 70 uM after 90 mins by microfluidic peptide phosphorylation assay.

For assay [4], the target named is T3, Protein kinase C zeta type (Homo sapiens) (UniProt Q05513).
T3 sequence (whole entry): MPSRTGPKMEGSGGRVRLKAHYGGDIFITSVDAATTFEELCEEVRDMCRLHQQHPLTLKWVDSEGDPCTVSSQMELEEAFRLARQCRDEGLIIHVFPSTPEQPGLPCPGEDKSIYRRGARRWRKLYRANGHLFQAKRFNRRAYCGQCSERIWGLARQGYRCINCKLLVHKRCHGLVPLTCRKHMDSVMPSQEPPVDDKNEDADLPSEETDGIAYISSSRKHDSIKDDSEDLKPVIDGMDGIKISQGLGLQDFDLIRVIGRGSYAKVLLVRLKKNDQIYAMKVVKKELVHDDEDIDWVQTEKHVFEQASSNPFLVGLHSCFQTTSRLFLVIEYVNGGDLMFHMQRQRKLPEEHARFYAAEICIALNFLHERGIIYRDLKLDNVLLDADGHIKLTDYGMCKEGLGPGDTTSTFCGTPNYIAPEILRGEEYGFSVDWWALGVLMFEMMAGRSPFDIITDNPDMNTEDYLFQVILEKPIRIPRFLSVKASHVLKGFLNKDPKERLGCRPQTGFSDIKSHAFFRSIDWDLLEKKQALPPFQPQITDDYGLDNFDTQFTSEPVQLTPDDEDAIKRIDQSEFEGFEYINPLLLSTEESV
Description: Inhibition of human full length PKC zeta expressed in baculovirus assessed as substrate phosphorylation using fluorescence-labelled peptides as substrate at 2 uM after 90 mins by microfluidic peptide phosphorylation assay.

In assay [5] the target is Ribosomal protein S6 kinase alpha-2 (Homo sapiens) (UniProt Q15349). Description: Inhibition of human full length RSK3 expressed in baculovirus assessed as substrate phosphorylation using fluorescence-labelled peptides as substrate at 95 uM after 90 mins by microfluidic peptide phosphorylation assay.
Chain of Ribosomal protein S6 kinase alpha-2 (Homo sapiens) (Q15349 whole entry, the tested form may be a part): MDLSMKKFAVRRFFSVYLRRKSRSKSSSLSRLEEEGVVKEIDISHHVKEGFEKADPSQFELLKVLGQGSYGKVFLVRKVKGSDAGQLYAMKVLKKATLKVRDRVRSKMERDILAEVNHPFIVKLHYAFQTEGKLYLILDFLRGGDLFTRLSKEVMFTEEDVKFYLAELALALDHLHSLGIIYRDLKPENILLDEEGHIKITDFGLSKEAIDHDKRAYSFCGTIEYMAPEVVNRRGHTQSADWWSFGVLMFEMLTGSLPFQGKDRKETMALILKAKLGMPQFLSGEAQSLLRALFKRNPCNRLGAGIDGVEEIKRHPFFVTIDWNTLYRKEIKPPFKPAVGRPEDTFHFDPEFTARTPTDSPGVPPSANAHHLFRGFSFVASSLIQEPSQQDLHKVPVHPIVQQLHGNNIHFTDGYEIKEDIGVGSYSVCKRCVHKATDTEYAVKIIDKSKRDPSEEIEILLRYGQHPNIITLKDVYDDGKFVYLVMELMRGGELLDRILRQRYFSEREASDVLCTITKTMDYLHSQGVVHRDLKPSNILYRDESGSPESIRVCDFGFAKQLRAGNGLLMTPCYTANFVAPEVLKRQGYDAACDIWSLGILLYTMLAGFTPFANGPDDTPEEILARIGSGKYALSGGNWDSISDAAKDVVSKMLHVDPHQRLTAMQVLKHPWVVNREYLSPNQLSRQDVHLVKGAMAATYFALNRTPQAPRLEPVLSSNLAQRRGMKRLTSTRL
The target of assay [6] is Fibroblast growth factor receptor 2 (Homo sapiens) (UniProt P21802). Description: Inhibition of human FGFR2 catalytic domain expressed in baculovirus assessed as substrate phosphorylation using fluorescence-labelled peptides as substrate at 1000 uM after 90 mins by microfluidic peptide phosphorylation assay.
Chain of Fibroblast growth factor receptor 2 (Homo sapiens) (P21802 22-821 limits assumed): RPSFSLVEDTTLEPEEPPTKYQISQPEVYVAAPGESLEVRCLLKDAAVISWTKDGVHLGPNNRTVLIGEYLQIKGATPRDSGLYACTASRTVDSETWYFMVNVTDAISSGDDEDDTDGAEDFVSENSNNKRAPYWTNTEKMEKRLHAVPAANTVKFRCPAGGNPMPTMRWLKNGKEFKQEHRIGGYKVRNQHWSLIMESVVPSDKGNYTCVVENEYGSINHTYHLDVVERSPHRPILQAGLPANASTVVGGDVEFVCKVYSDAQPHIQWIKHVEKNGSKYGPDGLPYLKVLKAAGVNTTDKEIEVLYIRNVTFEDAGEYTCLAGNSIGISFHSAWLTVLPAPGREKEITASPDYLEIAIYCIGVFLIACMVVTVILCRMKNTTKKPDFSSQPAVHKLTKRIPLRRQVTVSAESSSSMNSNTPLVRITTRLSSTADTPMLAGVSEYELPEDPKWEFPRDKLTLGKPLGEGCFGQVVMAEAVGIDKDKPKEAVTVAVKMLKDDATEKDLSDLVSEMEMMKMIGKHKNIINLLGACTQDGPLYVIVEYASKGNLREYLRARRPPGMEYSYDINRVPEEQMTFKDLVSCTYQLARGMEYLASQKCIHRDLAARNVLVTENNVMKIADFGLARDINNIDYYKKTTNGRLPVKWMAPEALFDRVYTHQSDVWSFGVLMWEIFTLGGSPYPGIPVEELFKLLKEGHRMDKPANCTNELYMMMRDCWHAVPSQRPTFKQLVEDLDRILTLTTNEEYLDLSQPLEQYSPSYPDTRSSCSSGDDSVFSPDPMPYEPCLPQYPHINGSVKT

As for `NCC1CCN(c2ncnc3[nH]ccc23)CC1`, the inhibition in assay [1] was 75.5%.

In the case of `NCC1CN(c2ncnc3[nH]c4cnccc4c23)CCO1` (stereo unspecified), the inhibition in assay [2] was determined as 26.5%.

As for `CNCc1ccc(-c2ncnc3[nH]cnc23)cc1`, the inhibition in assay [3] came out at 20.5%.

`NC1CCN(c2ncnc3[nH]ccc23)CC1`: the inhibition in assay [4] was 20.5%.

As for `NCCc1ccc(-c2ncnc3[nH]cnc23)cc1`, the inhibition in assay [5] amounted to 89%.

On to `c1cnc2[nH]ccc2c1`, for which, in assay [6], the inhibition was found to be 62%.
